# Laboratory results taken from publication PMC12373499 (Nature Metabolism, 2025).
# Several values for one entry are separate records, joined by “and”; a condition that tells them apart may be missing. Identical values can stand only once. Where a SMILES comes first, the peptide text is derived from it. [ ]: non-standard residue; d: D form. The star is where a group is joined. X1 = CN1C(=CC=CC=CC2=[N+](CCCCCC(=O)NCCN3C(=O)CC(*)C3=O)c3ccccc3C2(C)C)C(C)(C)c2ccccc21; Aib = CC(C)(N)C(=O)O
# Key:
# [1] = target: T1, Nluc–GIPR (hGIPR) (Homo sapiens, UniProt P48546); test: NanoBRET saturation binding assay, HEK293T cells
# T1 construct: expressed in transfected cells; host or cells: HEK293T cells, transient expression
# T1 sequence (P48546 22-466): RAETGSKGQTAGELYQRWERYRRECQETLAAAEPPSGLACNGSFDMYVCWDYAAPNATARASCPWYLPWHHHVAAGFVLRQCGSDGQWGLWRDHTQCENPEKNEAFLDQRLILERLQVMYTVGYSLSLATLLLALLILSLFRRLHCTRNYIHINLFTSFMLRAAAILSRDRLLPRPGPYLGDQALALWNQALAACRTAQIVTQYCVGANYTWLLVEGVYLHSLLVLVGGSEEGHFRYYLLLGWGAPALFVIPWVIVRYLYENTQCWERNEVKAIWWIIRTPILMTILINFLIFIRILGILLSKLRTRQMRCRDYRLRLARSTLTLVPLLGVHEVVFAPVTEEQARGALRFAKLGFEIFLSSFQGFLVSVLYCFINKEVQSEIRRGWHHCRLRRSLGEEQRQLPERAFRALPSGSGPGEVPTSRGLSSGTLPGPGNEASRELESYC
# Description: (§1) HEK293T cells (RRID:CVCL_0063) were cultured in DMEM/F12 GlutaMAX (ThermoFisher), supplemented with 10% FBS and 1% antibiotic-antimycotic solution and cultured at 37 °C, 5% CO2. HEK293T cells were authenticated at source using STR profiling. […] Media was then removed and the cells were incubated in PBS supplemented with 0.1% BSA and 0.01% NanoGlo (Promega). […] Plates were read using a PheraSTAR microplate reader, using the NanoBRET filter module. BRET ratios (λacceptor/λdonor) were calculated, and saturation data fit using the ‘One Site – Specific Binding’ equation of GraphPad Prism 10. Competition binding was fit using the ‘One Site – Fit Ki’ equation.
# [2] = target: T2, Nluc–GLP1R (hGLP1R) (Homo sapiens, UniProt P43220); test: NanoBRET saturation binding assay, HEK293T cells
# T2 construct: expressed in transfected cells; host or cells: HEK293T cells, transient expression
# Description: as §1
# [3] = test system: C57BL/N mice; test: Food intake study (FED3 devices); type: in vivo, mouse; conditions: 10 nmol kg^−1 s.c., dark phase and cumulative 24 h, n = 8 mice
# Description: Male and female 12–14 week old C57BL/N mice were singly housed in a 12 h dark–light cycle (14:00–02:00 h) and habituated to FED3 feeding devices for 7 days before commencing the study. All mice were kept on a 12 h light–dark cycle at 20–24 °C and 45–65% relative humidity (typically 21 °C and 55%). On test days, mice were fasted for 3 h before onset of the dark phase by removal of the FED3 devices. […] The study was performed using a three-way crossover design. A 1-week washout period was observed between experimental days. FED3 devices were checked, serviced and food was topped up daily.
# [4] = test system: Glp1r^WT/WT, Glp1r^WT/KO and Glp1r^KO/KO mice; test: Glucose tolerance testing (IPGTT); type: in vivo, mouse; parameters: Area under the curve for IPGTT: unit not given beside the values; conditions: for Area under the curve for IPGTT: individual mice
# Description: Glucose was measured in blood from the tail vein at 0, 15, 30, 60, 90 and 120 min post glucose challenge. Mice were socially housed in specific-pathogen-free conditions under a 12 h light–dark cycle with ad libitum access to food and water, relative humidity 55 ± 10% and temperature 21 ± 2 °C.
# [5] = One site -- Specific binding, fit of all pooled points
# T2 sequence (P43220 24-463): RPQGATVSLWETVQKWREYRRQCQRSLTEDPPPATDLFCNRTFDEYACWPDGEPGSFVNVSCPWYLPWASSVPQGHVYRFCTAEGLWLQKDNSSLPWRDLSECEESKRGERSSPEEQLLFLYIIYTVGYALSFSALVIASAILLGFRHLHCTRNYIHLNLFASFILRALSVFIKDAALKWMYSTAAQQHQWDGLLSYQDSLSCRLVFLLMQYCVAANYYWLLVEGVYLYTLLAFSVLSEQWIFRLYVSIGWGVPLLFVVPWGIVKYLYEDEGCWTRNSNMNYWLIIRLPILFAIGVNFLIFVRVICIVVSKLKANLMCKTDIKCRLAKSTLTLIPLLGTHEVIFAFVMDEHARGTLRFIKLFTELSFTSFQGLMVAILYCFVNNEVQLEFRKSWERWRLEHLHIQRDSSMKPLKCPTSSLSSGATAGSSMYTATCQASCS
structure (smiles),measurement,setting,value
CC[C@H](C)[C@H](NC(=O)[C@H](CC(C)C)NC(=O)[C@H](Cc1c[nH]c2ccccc12)NC(=O)[C@H](CCC(N)=O)NC(=O)[C@@H](NC(=O)[C@H](Cc1ccccc1)NC(=O)[C@H](C)NC(=O)[C@H](CCCCN)NC(=O)[C@H](CCC(N)=O)NC(=O)[C@H](C)NC(=O)[C@@H](NC(=O)[C@H](CCCCN)NC(=O)[C@H](CC(=O)O)NC(=O)[C@H](CC(C)C)NC(=O)C(C)(C)NC(=O)[C@@H](NC(=O)[C@H](CO)NC(=O)[C@H](Cc1ccc(O)cc1)NC(=O)[C@H](CC(=O)O)NC(=O)[C@H](CO)NC(=O)[C@@H](NC(=O)[C@H](Cc1ccccc1)NC(=O)[C@@H](NC(=O)CNC(=O)[C@H](CCC(=O)O)NC(=O)C(C)(C)NC(=O)[C@@H](N)Cc1ccc(O)cc1)[C@@H](C)O)[C@@H](C)O)[C@@H](C)CC)[C@@H](C)CC)C(C)C)C(=O)N[C@@H](C)C(=O)NCC(=O)NCC(=O)N1CCC[C@H]1C(=O)N[C@@H](CO)C(=O)N[C@@H](CO)C(=O)NCC(=O)N[C@@H](C)C(=O)N1CCC[C@H]1C(=O)N1CCC[C@H]1C(=O)N1CCC[C@H]1C(=O)N[C@@H](CSC1CC(=O)N(CCNC(=O)CCCCC[N+]2=C(C=CC=CC=C3N(C)c4ccccc4C3(C)C)C(C)(C)c3ccccc32)C1=O)C(N)=O (stereo partly drawn) [daLUXendin660] (H-Y[Aib]EGTFTSDYSI[Aib]LDKIAQKAFVQWLIAGGPSSGAPPPC(X1)-NH2),"Bmax best-fit (nM), hGIPR","[1]; Nluc-tagged hGIPR, NanoBRET saturation, n = 3 independent repeats",0.0080 nM
same,"Bmax, best-fit value, GIPR",[1]; [5],0.01181
same,"Bmax best-fit (nM), hGLP1R","[2]; Nluc-tagged hGLP1R, NanoBRET saturation, n = 3 independent repeats",0.0140 nM
same,"Bmax, best-fit value, GLP1R",[2]; [5],0.0163
same,effect on food intake,[3],reduced food intake
same,effect on blood glucose in glucose tolerance test,"[4]; 10 nmol kg^−1, Glp1r^WT/WT and Glp1r^WT/KO mice",substantial glucose-lowering effects
same,Area under the curve for IPGTT,[4]; GLP1RKO/KO (KO) mice,1726.5 and 1785 and 1967.25 and 1908.75 and 1827 and 1220.25 and 1424.25
same,Area under the curve for IPGTT,[4]; GLP1RWT/WT and GLP1RWT/KO (WT) mice,2001 and 1668.75 and 1041.75 and 969.75 and 1068
same,"Area under the curve for IPGTT, mean","[4]; KO mice, group mean (n = 6 TZP, n = 7 daLUX)",1694
same,"Area under the curve for IPGTT, mean","[4]; WT mice, group mean (n = 6 TZP, n = 5 daLUX)",1350
same,"Area under the curve for IPGTT, Mean Diff. WT Veh vs. WT treated","[4]; WT mice, one-way ANOVA, Benjamini, Krieger and Yekutieli",966.4
same,"Area under the curve for IPGTT, Mean Diff. WT treated vs. KO treated","[4]; WT vs. KO mice, one-way ANOVA, Benjamini, Krieger and Yekutieli",-344.3
